Source: paper PMC11440508, “Dually Labeled Neurotensin NTS1R Ligands for Probing Radiochemical and Fluorescence-Based Binding Assays” (Journal of Medicinal Chemistry, 2024)

Tests used:
NTS1R [1] = target: T1, NTS1R (Homo sapiens, UniProt P30989); assay: Flow cytometric (FC) association and dissociation kinetics, suspended CHO-hNTS1R cells; type: binding; conditions: FC (suspension); for koff: 23 °C, read-out: koff [min^–1] (converted); for kon: calculated from kobs, koff and ligand concentration, read-out: kon [min^–1 nM^–1] (converted)
T1 sequence (P30989 whole entry): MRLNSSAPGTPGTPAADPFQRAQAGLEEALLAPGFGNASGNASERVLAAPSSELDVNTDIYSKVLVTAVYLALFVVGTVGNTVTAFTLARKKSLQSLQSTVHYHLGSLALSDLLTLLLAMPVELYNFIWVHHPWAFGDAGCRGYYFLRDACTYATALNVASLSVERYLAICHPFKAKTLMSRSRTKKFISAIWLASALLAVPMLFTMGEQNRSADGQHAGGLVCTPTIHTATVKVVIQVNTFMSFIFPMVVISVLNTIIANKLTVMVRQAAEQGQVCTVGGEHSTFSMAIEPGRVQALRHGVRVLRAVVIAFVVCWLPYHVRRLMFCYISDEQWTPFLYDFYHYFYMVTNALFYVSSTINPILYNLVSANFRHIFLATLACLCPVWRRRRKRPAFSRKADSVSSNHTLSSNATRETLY
Procedure: Flow cytometry-based NTS1R binding studies were performed with intact CHO-hNTS1R (all kind of experiments) and HT-29 cells (only saturation binding) using a BD FACSCanto II (Becton Dickinson, Heidelberg, Germany), equipped with an argon laser (488 nm) and a red diode laser (640 nm), and a BD High Throughput Sampler (HTS unit) for microtiter plates. Saturation and competition binding experiments were performed in triplicate in 96-well polypropylene plates (Brand 701330, Wertheim, Germany) using the HTS unit for sample injection. Association and dissociation experiments were performed in duplicate in 5 mL polypropylene tubes (VWR, Radnor) using the standard injection port of the flow cytometer. The following gain settings for forward and sideward scatter were applied: FSC, 0 V; SSC, 252 V. Fluorescence was recorded using the PE-channel (excitation: 488 nm, emission: 585 ± 21) nm with a PMT gain of 330–400 V. For measurements using the HTS unit, 45 μL of the sample were injected with a speed of 1.5 μL/s. For measurements, requiring the use of the standard injection port, the medium flow rate ([…]) was used. Measurements were stopped after 30 s (HTS unit) or after counting of 500–3000 gated events (standard injection port).
Cells were seeded in T75 culture flasks 3–4 days (CHO-hNTS1R cells) or 5–6 days (HT-29 cells) prior to the experiment. On the day of the experiment, cells were detached by trypsinization, suspended in DPBS1 and centrifuged at 200g at rt for 5 min. […]
5 mL polypropylene tubes were prefilled with 2000 μL of cell suspension and DMSO/H2O 2:8 v/v (20 μL) were added (determination of total binding). […] Specific binding data, obtained by subtracting triplicate mean values of unspecific binding from triplicate mean values of total binding, were plotted against the time and analyzed by a three-parameter equation describing an exponential rise to a maximum (one-phase association, Y0 constrained to zero, GraphPad Prism 5) to yield the observed association rate constant kobs. […]
5 mL polypropylene tubes were prefilled with 2000 μL of cell suspension. […] After different periods of time (1–240 min), sample aliquots were measured by placing the tube in the injection port of the flow cytometer. Specific binding data, obtained by subtracting triplicate mean values of unspecific binding from triplicate mean values of total binding, were plotted against the time and analyzed by a three-parameter equation describing an incomplete monophasic exponential decline (one phase decay, GraphPad Prism 5) to obtain koff values. […]
The kon and Kd(kin) values were calculated as described for high-content imaging binding experiments.

NTS1R [2] = target: T1, NTS1R; assay: High-content imaging (HCI) saturation binding, adherent CHO-hNTS1R cells; conditions: 23 °C
Procedure: CHO-hNTS1R or HT-29 cells were seeded one day prior to the experiment into the inner 60 wells of a black clear-bottom 96-well plate (Greiner 655090, Greiner Bio-One) at a concentration of 25,000 cells/well and 35,000 cells/well, respectively. On the day of the assay, the medium was removed by suction and the cells were washed with DPBS1 (50 μL). After this step, DPBS1 (180 or 200 μL) containing the nuclear dye Hoechst H33342 (2 μg/mL) was added. This solution also contained the fluorescent ligand (kinetic studies, competition binding experiments), or the fluorescent ligand was added separately (saturation binding experiments). […] Shortly before subjecting the plate to the plate reader for image acquisition, the liquid was removed by suction and DPBS1 (100 μL) was added. Images were acquired using an IX Micro plate reader (Molecular Devices, Sunnyvale, CA) using a 20× Plan Fluor ELWD objective, a xenon lamp light source and DAPI and TRITC excitation/emission filter cubes for imaging nuclear and fluorescent ligand staining, respectively. […] Two sites/well were measured throughout. Images were analyzed by granularity analysis (2–3 μm diameter granules; MetaXpress 5.3, Molecular Devices, San Diego, CA) and the integrated intensity (pixel intensity × granule area) per cell was used as the raw measurement of fluorescent ligand binding. […]

SMILES | koff (NTS1R [1]) [s⁻¹] | kon (NTS1R [1]) [M⁻¹ s⁻¹] | Kd (NTS1R [2]) [nM]
CCC(=O)NCCCCNC(=O)N=C(N)NCCC[C@H](NC(=O)[C@@H]1CCCN1C(=O)[C@@H](NC(=O)CCc1cn(CCCNC(=O)c2ccc(-c3c4ccc(=[N+](C)C)cc-4oc4cc(N(C)C)ccc34)c(C(=O)[O-])c2)nn1)C1CCNCC1)C(=O)N[C@@H](CCCNC(=N)N)C(=O)N1CCC[C@H]1C(=O)N[C@@H](Cc1ccc(O)cc1)C(=O)N[C@H](C(=O)N[C@@H](CC(C)C)C(=O)O)[C@@H](C)CC [Compound 13, N^α-(3-(1-N-((1-Carboxylato-2-(6-(dimethylamino)-3-(dimethyliminio)-3H-xanthen-9-yl)phen-5-yl)1-oxomethyl)aminoprop-3-yl-1H-1,2,3-triazol-4-yl)propanoyl)-2-(piperidin-4-yl)-Gly-Pro-N^ω-[(4-(N-propanoyl)aminobutyl)aminocarbonyl]Arg-Arg-Pro-Tyr-Ile-Leu Tris(hydrotrifluoroacetate)] | 0.000333 | 8e+06 | 1.1 ± 0.2
CCC(=O)NCCCCNC(=O)NC(=N)NCCC[C@H](NC(=O)[C@@H]1CCCN1C(=O)[C@@H](NC(=O)CCc1cn(CCCNC(=O)CCC#Cc2ccc3c(c2)C(C)(C)C2=C4C=C5C6=[N+](CCC5OC4CCN23)c2ccc(S(=O)(=O)[O-])cc2C6(C)C)nn1)C1CCNCC1)C(=O)N[C@@H](CCCNC(=N)N)C(=O)N1CCC[C@H]1C(=O)N[C@H](C(=O)N[C@H](C(=O)N[C@@H](CC(C)C)C(=O)O)[C@@H](C)CC)C(C)(C)c1ccc(O)cc1 (stereo partly drawn) [Compound 18, N^α-(3-(N-(1-(8-Sulfonato-5,5,27,27-tetramethyl-16-oxa-20-aza-12-azoniaheptacyclo[15.11.0.03,15.04,12.06,11.020,28.021,26]octacosa-1(28),2,4(12),6(11),7,9,21(26),22,24-nonaen-24-yl)-5-oxopentyn-5-yl)-1-aminoprop-3-yl-1H-1,2,3-triazol-4-yl)propanoyl)-2-(piperidin-4-yl)-Gly-Pro-N^ω-[(4-(N-propanoyl)aminobutyl)aminocarbonyl]Arg-Arg-Pro-β,β-dimethyl-L-Tyr-Ile-Leu Tris(hydrotrifluoroacetate)] | 0.0004 | 2.67e+06 | 1.3 ± 0.3
